# Test results: patent US7179800B2 (priority 2002, dated 2007)
# What was measured:
# Male ICR mice [1] = test: Change in rectal temperature (RT) in mice; assay type: in vivo, mouse
# Experimental: (§1) Male ICR mice (25–32 g), obtained from Harlan (Dublin, Va.), were housed in groups of five. All animals were kept in a temperature-controlled (20–22° C.) environment with a 12-hour light-dark cycle (lights on at 7 a.m.). Separate mice were used for testing each drug dose in the in vivo behavioral procedures. Brain tissue for binding studies was obtained from male Sprague-Dawley rats (150–200 g) purchased from Harlan Laboratories (Dublin, Va.).
# (§2) Measurement of spontaneous activity in mice occurred in standard activity chambers interfaced with a Digiscan Animal Activity Monitor (Omnitech Electronics, Inc., Columbus, Ohio). A standard tail-flick apparatus and a digital thermometer (Fisher Scientific, Pittsburgh, Pa.) were used to measure antinociception and rectal temperature, respectively
# (§3) Resorcinols were synthesized in our labs (Organix, Inc., Woburn, Mass.) according to the procedure specified below and were suspended in a vehicle of absolute ethanol, Emulphor-620 (Rhone-Poulenc, Inc., Princeton, N.J.), and saline in a ratio of 1:1:18. Drugs were administered to the mice intravenously (i.v.) in the tail vein at a volume of 0.1 ml/10 g.
# (§4) Prior to testing in the behavioral procedures, mice were acclimated to the experimental setting (ambient temperature 22–24° C.) overnight. Pre-injection control values were determined for rectal temperature and tail-flick latency (in sec). […] Tail-flick latency was measured at 20 min post-injection. Maximum latency of 10 sec was used. Antinociception was calculated as percent of maximum possible effect {% MPE=[(test−control latency)/(10-control)]×100}. Control latencies typically ranged from 1.5 to 4.0 sec. At 30 min post-injection, rectal temperature was measured This value was expressed as the difference between control temperature (before injection) and temperatures following drug administration (° C.). Different mice (n=5–6 per dose) were tested for each dose of each compound. Each mouse was tested in each of the 3 procedures.
# (§5) Based on data obtained from numerous previous studies with cannabinoids, maximal cannabinoid effects in each procedure were estimated as follows: 90% inhibition of spontaneous activity, 100% MPE in the tail flick procedure, and −6° C. change in rectal temperature. ED50's were defined as the dose at which half maximal effect occurred. For drugs that produced one or more cannabinoid effect, ED50's were calculated separately using least-squares linear regression on the linear part of the dose-effect curve for each measure in the mouse tetrad, plotted against log10 transformation of the dose. For the purposes of potency comparison, potencies were expressed as μmol/kg.
# Male ICR mice [2] = test: Suppression of spontaneous activity (SA) in mice; assay type: in vivo, mouse
# Experimental: as §1, §2, §3, §4, §5
# CB2 receptor = molecular target: T1, CB2 receptor (Homo sapiens, UniProt P34972); test: CB2 binding procedure: displacement of [3H]CP-55,940 from membranes of transfected CHO cells; details: means ± SEM; [3H]CP-55,940, transfected CHO cell membranes; read-out: Ki (nM) CB2
# T1 construct: expressed in transfected cells; host or cells: CHO cells, G418-selected transfected line
# T1 sequence (P34972 whole entry): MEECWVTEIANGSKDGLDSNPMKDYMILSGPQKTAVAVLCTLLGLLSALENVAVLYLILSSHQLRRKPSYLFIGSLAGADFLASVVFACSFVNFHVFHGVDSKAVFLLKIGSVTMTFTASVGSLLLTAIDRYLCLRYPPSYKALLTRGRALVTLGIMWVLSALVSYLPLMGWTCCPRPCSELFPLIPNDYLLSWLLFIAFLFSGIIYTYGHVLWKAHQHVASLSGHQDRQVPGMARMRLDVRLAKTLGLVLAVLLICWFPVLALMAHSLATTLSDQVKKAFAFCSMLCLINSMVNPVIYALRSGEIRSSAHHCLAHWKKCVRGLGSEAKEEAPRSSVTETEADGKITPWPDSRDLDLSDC
# Experimental: Membranes for CB2 binding were obtained from CHO cells. The transfected cell line was maintained in Dublecco's Modified Eagle Medium (Gibco BRL, Grand Island, N.Y.) with 10% fetal clone II (HyClone Laboratories, Inc., Logan, Utah) plus 0.3 to 0.5 mg/ml G418 (to maintain selective pressure) under 5% CO2 at 37% C. Cells were harvested with 1 mM EDTA in phosphate-buffered saline and were centrifuged at 1000×g for 5 min at 4% C. The supernatant was saved and the P1 pellet was resuspended in centrifugation buffer. Homogenization and centrifugation were repeated twice and the combined supernatant fractions were centrifuged at 40,000×g for 30 min at 4% C. The P2 pellet was resuspended in centrifugation buffer 2 (Tris HCl, 50 mM; EDTA, 1 mM; and MgCl2, 3 mM, pH 7.4) to a protein concentration of approximately 2 mg/ml. Protein concentrations were determined by the method of Bradford (1976) using Bio-Rad Protein Assay (Bio-Rad, Richmond, Calif.) and BSA standards (fatty acid free, Sigma Chemical Co., St. Louis, Mo.). The membrane preparation was divided into amounts convenient for binding assays and frozen rapidly in dry ice and stored at −80% C.
# Binding was initiated by the addition of 50 μg of quickly thawed P2 membranes to test tubes containing [^3H]CP-55,940 (final reaction concentration 0.5 nM), an appropriate concentration of unlabeled CP-55,940 or test drug, and sufficient quantity of assay buffer (50 mM Tris-HCl, 1 mM EDTA, 3 mM MgCl2, 5 mg/ml bovine serum albumin, pH 7.4) to bring the total incubation volume to 0.5 ml. Concentration of [^3H]CP-55,940 in saturation studies ranged from 50 to 10,000 pM. Nonspecific binding was determined by the addition of 1 μM unlabeled CP-55,940. CP-55,940 and all cannabinoid analogs were prepared by suspension in assay buffer from a 1 mg/ml ethanolic stock without evaporation of the ethanol (final concentration of no more than 0.4%). In competition studies, analog concentrations ranged from 0.1 nM to 10 μM. After incubation at 30% C for 1 hr, binding was terminated by the addition of 2 ml of ice-cold wash buffer (50 mM Tris-HCl and 1 mg/ml BSA) and vacuum filtration through pre-treated filters in a 12-well sampling manifold (Millipore, Bedford, Mass.). Reaction vessels were washed once with 2 ml of ice-cold wash buffer. Filters were placed into 7-ml plastic scintillation vials (RPI Corp., Mount Prospect, Ill.) with 4 ml of Budget-Solve (RPI Corp.). After shaking for 30 min, the radioactivity present was determined by liquid scintillation spectrometry. Three reaction vessels were used for each drug concentration in each assay. The results represent the combined data of three independent experiments. All assays were performed in siliconized test tubes, which were prepared by air drying (12 hr) inverted borosilicate tubes after two rinses with a 0.1% solution of AquaSil (Pierce, Rockford, Ill.). The GF/C glass-fiber filters (2.4 cm, Baxter, McGaw Park, Ill.) were pre-treated in a 0.1% solution of pH 7.4 polyethylenimine (Sigma Chemical Co.) for at least 6 hr.
# (§6) In addition, multiple linear regression was used to calculate the overall degree of relationship between CB1 binding affinity and potency in the mouse measures for all active cannabinoids. […] Ki values for CB1 and CB2 binding were obtained from Scatchard displacement analysis as determined via EBDA program of the KELL software package (Biosoft, Milltown, N.J.).
# Male ICR mice [3] = test: Tail-flick antinociception (TF, % MPE) in mice; assay type: in vivo, mouse
# Experimental: as §1, §2, §3, §4, §5
# Male ICR mice [4] = test: Lethality noted in the mouse behavioral procedures; assay type: in vivo; details: Table 6; @ 30 (mg/kg)
# Experimental: as §3, §4
# CB1 receptor = CB1 receptor (Rattus norvegicus, UniProt P20272); test: CB1 binding procedure: displacement of [3H]CP 55,940 from rat whole-brain P2 membranes; parameters: whole brain was homogenized and centrifuged; from tissue; host or cells: rat whole brain, P2 membrane fraction; details: means ± SEM; [3H]CP 55,940, rat brain membranes; read-out: Ki (nM) CB1
# CB1 receptor, sequence (P20272 whole entry): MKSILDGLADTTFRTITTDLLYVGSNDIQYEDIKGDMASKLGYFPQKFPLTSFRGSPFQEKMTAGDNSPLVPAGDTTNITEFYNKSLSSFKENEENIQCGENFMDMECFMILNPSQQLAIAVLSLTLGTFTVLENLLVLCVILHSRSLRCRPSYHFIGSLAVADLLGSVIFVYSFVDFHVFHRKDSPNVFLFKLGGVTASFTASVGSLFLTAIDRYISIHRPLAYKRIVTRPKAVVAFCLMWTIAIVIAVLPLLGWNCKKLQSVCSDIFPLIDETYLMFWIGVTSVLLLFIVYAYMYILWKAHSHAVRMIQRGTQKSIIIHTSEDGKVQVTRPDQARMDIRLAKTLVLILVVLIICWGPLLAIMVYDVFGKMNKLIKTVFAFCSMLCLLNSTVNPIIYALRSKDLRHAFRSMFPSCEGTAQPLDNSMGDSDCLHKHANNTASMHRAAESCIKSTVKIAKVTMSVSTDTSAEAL
# Experimental: as §1
# The methods used for tissue preparation and binding have been described previously (Compton et al., 1993) and are similar to those described by Devane et al. (1988). All assays, as described briefly below, were performed in triplicate, and the results represent the combined data from three to six individual experiments.
# Following decapitation and rapid removal of the brain, whole brain was homogenized and centrifuged. The resulting pellet was termed P1. The supernatant was saved and combined with the two subsequent supernatants obtained from washing of the P1 pellet. The combined supernatant fractions were centrifuged, resulting in the P2 pellet. After further incubation and centrifuging, this pellet was resuspended in assay buffer to a protein concentration of approximately 2 mg/ml. The membrane preparation was quickly frozen in a bath solution of dry ice and 2-methylbutane (Sigma Chemical Co., St. Louis, Mo.), then stored at −80° C. for no more than 2 weeks. Prior to performing a binding assay an aliquot of frozen membrane was rapidly thawed and protein values determined by the method of Bradford (1976).
# Binding was initiated by the addition of 150 μg of P2 membrane to test tubes containing 1 nM of [^3H] CP 55,940 (79 Ci/mmol) and a sufficient quantity of buffer to bring the total incubation volume to 1 ml. Nonspecific binding was determined by the addition of 1 μM unlabeled CP 55,940. Following incubation at 30° C. for 1 hr, binding was terminated by addition of ice cold buffer and vacuum filtration through pretreated filters in a 12-well sampling manifold (Millipore, Bedford, Mass.). After washing, filters were placed into plastic scintillation vials (Packard, Downer Grove, Ill.) and shaken. The quantity of radioactivity present was determined by liquid scintillation spectrometry.
# as §6
compound,measurement,setting,value
"CCCCCCC(C)(C)c1cc(O)c(C2CCN(C)CC2)c(O)c1 [O-1662, 2-(1-Methylpiperidin-4-yl)-5-(1′,1′-dimethylheptyl)-re-sorcinol]",R.T. effect at dose,"Male ICR mice [1]; Table 6, @ 10 (mg/kg)",1 °C
same,RT effect at the highest dose (change in rectal temperature),"Male ICR mice [1]; mice, i.v., 30 mg/kg",−3(30) °C
same,"S.A % effect at dose, stim.","Male ICR mice [2]; Table 6, stimulation, @ 10 (mg/kg)",77% stim.
same,SA percent effect at the highest dose,"Male ICR mice [2]; mice, i.v., 30 mg/kg, % inhibition of activity of vehicle group",87%(30)
same,Ki,CB2 receptor,5420 ± 1100 nM
same,T.F. % effect at dose,"Male ICR mice [3]; Table 6, @ 10 (mg/kg)",7 @ 10%
same,TF percent effect (% MPE) at the highest dose,"Male ICR mice [3]; mice, i.v., 30 mg/kg",30%(30)
same,Lethality at dose,Male ICR mice [4],Lethal
same,Ki,CB1 receptor,> 10000 nM
